# Source: patent US8440591B2, “Pesticidal composition comprising synthetic compound useful as nodulation agent of leguminous plants and a fungicide compound” (Bayer Cropscience AG, priority 2006, dated 2013)
# Like-named read-outs stand apart in the source and are kept apart here.
# Assays:
# Format in all cases: cell-based
# [1] = test system: Botrytis cinerea; assay: In vitro microtest of Botrytis cinerea
# Method: V.9. In vitro microtest of Botrytis cinerea
# (§1) The microtest was performed in liquid medium with potato-dextrose broth (PDB) using microtitre plates.
# (§2) The active compound is applied as the technical active substance dissolved in methanol.
# (§3) A spore suspension of Botrytis cinerea was used for inoculation. After 5 days (combination A2+B1), 4 days (combination A3+B3), or 7 days ( combination A5+B1) of incubation by darkness under shaking (10 Hrz), the optical density in each cavity was evaluated with the aid of a microtitre plate reader. 0% means an efficacy which corresponds to that of the control, while an efficacy of 100% means that no fungal growth is observed.
# [2] = test system: Coriolus versicolor; assay: In vitro microtest of Coriolus versicolor; conditions: 3 days incubation
# Method: V.5. In vitro Microtest of Coriolus versicolor
# as §1, §2
# as §3, with “mycelium” for “spore”, “Coriolus versicolor” for “Botrytis cinerea”, “3” for “5”, “days” for “days (combination A2+B1), 4 days (combination A3+B3), or 7 days ( combination A5+B1)”
# [3] = test system: Rhizoctonia solani; assay: In vitro microtest of Rhizoctonia solani
# Method: V.10. In vitro Microtest of Rhizoctania solani
# as §1, §2
# A mycelium suspension of Rhizoctonia solani was used for inoculation. After 3 days (combinations A1+B3, A3+B2), 7 days (combination A2+B1), 4 days (combination A4+B2) or 5 days (combination A5+B1) of incubation by darkness under shaking (10 Hrz), the optical density in each cavity was evaluated with the aid of a microtitre plate reader.
# 0% means an efficacy which corresponds to that of the control, while an efficacy of 100% means that no fungal growth is observed.
# [4] = test system: Phytophthora cryptogea; assay: In vitro microtest of Phytophthora cryptogea; conditions: 3 ppm; 4 days incubation
# Method: V.11. In vitro Microtest of Phytophthora cryptogea
# as §1, §2
# as §3, with “mycelium” for “spore”, “Phytophthora cryptogea” for “Botrytis cinerea”, “After” for “After 5 days (combination A2+B1),”, “days” for “days (combination A3+B3), or 7 days ( combination A5+B1)”
# [5] = test system: Pyricularia oryzae
# [6] = test system: Gibberella zeae
# [7] = test system: Penicillium brevicaule; assay: In vitro microtest of Penicillium brevicaule (optical density in PDB, microtitre plates); conditions: 7 days incubation
# [8] = test system: Septoria tritici; assay: In vitro microtest of Septoria tritici; conditions: 3 days incubation
# Method: V.8. In vitro microtest of Septoria tritici
# The microtest was performed in liquid medium with potato-dextrose broth (PDB) using microlitre plates.
# (§4) The active compound is applied as the technical active substance dissolved in methanol. A spore suspension of Septoria tritici was used for inoculation. After 3 days of incubation by darkness under shaking (10 Hrz), the optical density in each cavity was evaluated with the aid of a microtitre plate reader. 0% means an efficacy which corresponds to that of the control, while an efficacy of 100% means that no fungal growth is observed.
# [9] = test system: Alternaria mali; assay: In vitro microtest of Alternaria mali; conditions: 3 ppm; 4 days incubation
# Method: V.6. In vitro Microtest of Alternaria mali
# as §1
# as §4, with “Alternaria mali” for “Septoria tritici”, “4” for “3”
# [10] = test system: Ustilago avenae; assay: In vitro microtest of Ustilago avenae; conditions: 1 ppm; 5 days incubation
# Method: V.12. In vitro Microtest of Ustilago avenae
# as §1, §2
# as §3, with “Ustilago avenae” for “Botrytis cinerea”, “days” for “days (combination A2+B1), 4 days (combination A3+B3), or 7 days ( combination A5+B1)”
structure (smiles),measurement,setting,value
"OC(Cc1ccccc1Cl)(Cn1nc[nH]c1=S)C1(Cl)CC1 (centres unmarked) [A2, Prothioconazole]",Efficacy in %,"[1]; 0.3 ppm, 5 days incubation",40%
same,Efficacy in %,[2]; 0.003 ppm,48%
same,Efficacy in %,"[3]; 0.1 ppm, 7 days incubation",50%
same,Efficacy in %,[4],19%
"COCC(=O)N(c1c(C)cccc1C)C(C)C(=O)OC (centres unmarked) [A5, Metalaxyl]",Efficacy in %,"[1]; 0.0003 ppm, 7 days incubation",4%
same,Efficacy in %,"[3]; 0.0003 ppm, 5 days incubation",80%
CCCCCC/C=C\CCCOc1cccc(C(=O)N[C@@H]2C(O[C@H]3C(O)C(NC(C)=O)C(O[C@@H]4C(CO)O[C@@H](O[C@H]5C(O)C(NC(C)=O)C(OC6C(CO[C@@H]7OC(C)C(O)[C@H](O)[C@H]7OC)OC(O)[C@@H](NC(C)=O)[C@H]6O)O[C@H]5CO)[C@@H](NC(C)=O)C4O)O[C@H]3CO)OC(CO)[C@@H](O)[C@@H]2O)c1 (some centres unmarked) [B1],Efficacy in %,"[1]; 0.00000003 ppm, 7 days incubation",10%
same,Efficacy in %,"[1]; 0.00003 ppm, 5 days incubation",18%
same,Efficacy in %,"[5]; 0.00001 ppm, 3 days incubation",2%
same,Efficacy in %,"[5]; 0.00003 ppm, 5 days incubation",5%
same,Efficacy in %,[2]; 0.000001 ppm,22%
same,Efficacy in %,"[6]; 0.000001 ppm, 3 days incubation",4%
same,Efficacy in %,"[6]; 0.00001 ppm, 3 days incubation",12%
same,Efficacy in %,"[3]; 0.00000003 ppm, 5 days incubation",41%
same,Efficacy in %,"[3]; 0.00001 ppm, 7 days incubation",9%
same,Efficacy in %,[7]; 0.00003 ppm,0%
same,Efficacy in %,[8]; 0.000001 ppm,1%
"Cc1nn(C)c(F)c1C(=O)Nc1ccccc1C(C)CC(C)C (centres unmarked) [A1, N-[2-(1,3-dimethylbutyl)phenyl]-5-fluoro-1,3-dimethyl-1H-pyrazole-4-carboxamide]",Efficacy in %,[2]; 0.01 ppm,97%
same,Efficacy in %,"[6]; 1 ppm, 4 days incubation",39%
same,Efficacy in %,"[3]; 0.003 ppm, 3 days incubation",79%
same,Efficacy in %,[7]; 0.3 ppm,37%
same,Efficacy in %,[8]; 0.01 ppm,4%
"CC(C)(C)C(O)(CCc1ccc(Cl)cc1)Cn1cncn1 (centres unmarked) [A3, Tebuconazole]",Efficacy in %,"[1]; 0.1 ppm, 4 days incubation",33%
same,Efficacy in %,"[5]; 0.3 ppm, 5 days incubation",96%
same,Efficacy in %,"[6]; 0.01 ppm, 3 days incubation",9%
same,Efficacy in %,[9],97%
same,Efficacy in %,"[3]; 3 ppm, 3 days incubation",47%
"CON=C(C(=O)OC)c1ccccc1CON=C(C)c1cccc(C(F)(F)F)c1 [A4, Trifloxystrobin]",Efficacy in %,"[5]; 0.1 ppm, 3 days incubation",63%
same,Efficacy in %,[10],92%
same,Efficacy in %,"[6]; 0.1 ppm, 3 days incubation",88%
same,Efficacy in %,"[6]; 1 ppm, 5 days incubation",75%
same,Efficacy in %,"[3]; 1 ppm, 4 days incubation",43%
